Inconclusive results and toxic doses are left out.

This passage reports T/C results from PubChem BioAssay AID250 (DTP/NCI, 2004).

The test system of test [1] is BDF1 mice, L1210 leukemia sc, survival T/C. The test can be described thus: NCI In Vivo Anticancer Drug Screen. Data for tumor model L1210 Leukemia (subcutaneous) in B6D2F1 (BDF1) mice. The conditions noted are these: endpoint: median survival time, higher = longer survival. The gist of the method: (§1)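 Mice carrying transplanted tumors received test compounds, and survival or tumor size was measured. Values are the treated-group measurement (T) divided by that of the vehicle-treated control group (C).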

Test [2] relates to BDF1 mice, L1210 leukemia sc. The description is as above. The conditions noted are these: endpoint: mean tumor weight, vehicle: water, higher = larger tumour. Put shortly: as §1
[3] abbreviates: dose: 108.0 mg/kg/injection, schedule: Q01DX Z (sc), vehicle: methylcellulose (MC).

In the case of `O=C(NO)c1ccncc1`, the T/C in test [1] (dose: 67.0 mg/kg/injection, schedule: Q#B X027 (ip), vehicle: water) is 108 % of control; in test [1] (dose: 133.0 mg/kg/injection, schedule: Q#B X027 (ip), vehicle: water) it was 108 % of control; in test [1] (dose: 200.0 mg/kg/injection, schedule: Q01DX009 (ip), vehicle: water), 108 % of control; in test [1] (dose: 200.0 mg/kg/injection, schedule: Q#B X027 (ip), vehicle: water), 116 % of control; in test [1] (dose: 267.0 mg/kg/injection, schedule: Q#B X027 (ip), vehicle: water) it was 108 % of control; in test [2] (dose: 67.0 mg/kg/injection, schedule: Q#B X027 (ip)), 68 % of control. For the same compound, the T/C in test [2] (dose: 133.0 mg/kg/injection, schedule: Q#B X027 (ip)) was 58 % of control; in test [2] (dose: 200.0 mg/kg/injection, schedule: Q01DX009 (ip)) it was 60 % of control; in test [2] (dose: 200.0 mg/kg/injection, schedule: Q#B X027 (ip)), 57 % of control; in test [2] (dose: 267.0 mg/kg/injection, schedule: Q#B X027 (ip)) it was 41 % of control.
Turning to `CCN(O)C(N)=O`, the T/C was 95 % of control in test [1] (dose: 1.0 mg/kg/injection, schedule: Q01DX Z (sc), vehicle: methylcellulose (MC)); 104 % of control in test [1] (dose: 2.0 mg/kg/injection, schedule: Q01DX Z (sc), vehicle: methylcellulose (MC)); 91 % of control in test [1] (dose: 4.0 mg/kg/injection, schedule: Q01DX Z (sc), vehicle: methylcellulose (MC)); 100 % of control in test [1] (dose: 8.0 mg/kg/injection, schedule: Q01DX Z (sc), vehicle: methylcellulose (MC)); 100 % of control in test [1] (dose: 16.0 mg/kg/injection, schedule: Q01DX Z (sc), vehicle: methylcellulose (MC)); 100 % of control in test [1] (dose: 31.0 mg/kg/injection, schedule: Q01DX Z (sc), vehicle: methylcellulose (MC)). For the same compound, the T/C is 100 % of control in test [1] (dose: 62.0 mg/kg/injection, schedule: Q01DX Z (sc), vehicle: methylcellulose (MC)); 100 % of control in test [1] (dose: 125.0 mg/kg/injection, schedule: Q01DX Z (sc), vehicle: methylcellulose (MC)); 112 % of control in test [1] (dose: 250.0 mg/kg/injection, schedule: Q01DX Z (sc), vehicle: methylcellulose (MC)).
In the case of `Nc1[nH]c(=O)nc2[nH]ncc12`, the T/C was 100 % of control in test [1] (dose: 46.8 mg/kg/injection, schedule: Q01DX Z (sc), vehicle: methylcellulose (MC)); 100 % of control in test [1] (dose: 78.0 mg/kg/injection, schedule: Q01DX Z (sc), vehicle: methylcellulose (MC)); 100 % of control in test [1] (dose: 130.0 mg/kg/injection, schedule: Q01DX Z (sc), vehicle: methylcellulose (MC)); 108 % of control in test [1] (dose: 216.0 mg/kg/injection, schedule: Q01DX Z (sc), vehicle: methylcellulose (MC)); 104 % of control in test [1] (dose: 360.0 mg/kg/injection, schedule: Q01DX Z (sc), vehicle: methylcellulose (MC)); 100 % of control in test [1] (dose: 600.0 mg/kg/injection, schedule: Q01DX Z (sc), vehicle: methylcellulose (MC)).
For `C=CC(CN1CC1)OC(C)=O` (configuration not stated), the T/C in test [1] (dose: 2.8 mg/kg/injection, schedule: Q01DX Z (sc), vehicle: saline) is 111 % of control; in test [1] (dose: 4.7 mg/kg/injection, schedule: Q01DX Z (sc), vehicle: saline), 122 % of control; in test [1] (dose: 7.8 mg/kg/injection, schedule: Q01DX Z (sc), vehicle: saline) it was 150 % of control; in test [1] (dose: 13.0 mg/kg/injection, schedule: Q01DX Z (sc), vehicle: saline) it was 188 % of control; in test [1] (dose: 22.0 mg/kg/injection, schedule: Q01DX Z (sc), vehicle: saline), 155 % of control; in test [1] (dose: 60.0 mg/kg/injection, schedule: Q01DX Z (sc), vehicle: saline), 122 % of control.
Turning to `COC(=O)[C@@H]1c2cc3c(c(O)c2[C@@H](OC2OC(C)C(OC)C(C)(OC)C2OC)C[C@]1(C)O)C(=O)c1c(O)cc2c(c1C3=O)O[C@H]1O[C@]2(C)[C@H](O)[C@@H](N(C)C)[C@@H]1O` (some centres not stated), the T/C was 105 % of control in test [1] (dose: 3.0 mg/kg/injection, schedule: Q01DX Z (sc), vehicle: saline); 100 % of control in test [1] (dose: 5.0 mg/kg/injection, schedule: Q01DX Z (sc), vehicle: saline); 100 % of control in test [1] (dose: 8.4 mg/kg/injection, schedule: Q01DX Z (sc), vehicle: saline); 90 % of control in test [1] (dose: 14.0 mg/kg/injection, schedule: Q01DX Z (sc), vehicle: saline); 90 % of control in test [1] (dose: 23.0 mg/kg/injection, schedule: Q01DX Z (sc), vehicle: saline).
Consider `CC(C)CSc1ncnc2nc[nH]c12`, for which the T/C in test [1] (dose: 38.9 mg/kg/injection, schedule: Q01DX Z (sc), vehicle: methylcellulose (MC)) is 100 % of control; in test [1] (dose: 64.8 mg/kg/injection, schedule: Q01DX Z (sc), vehicle: methylcellulose (MC)) it was 100 % of control; in test [1] (setting [3]) it was 100 % of control.
Take `O=C(Nc1ccc(S(=O)(=O)O)cc1)c1ccc([N+](=O)[O-])cc1`: the T/C in test [1] (dose: 8.4 mg/kg/injection, schedule: Q01DX Z (sc), vehicle: water) was 155 % of control; in test [1] (dose: 14.0 mg/kg/injection, schedule: Q01DX Z (sc), vehicle: water) it was 194 % of control; in test [1] (dose: 23.0 mg/kg/injection, schedule: Q01DX Z (sc), vehicle: water), 150 % of control.
Turning to `C[C@]12CCC(=O)C=C1CC[C@@H]1[C@@H]2[C@@H](O)C[C@@]2(C)[C@H]1CC[C@]2(O)C(=O)CO`, the T/C is 100 % of control in test [1] (dose: 65.0 mg/kg/injection, schedule: Q01DX Z (sc), vehicle: methylcellulose (MC)); 100 % of control in test [1] (setting [3]); 100 % of control in test [1] (dose: 180.0 mg/kg/injection, schedule: Q01DX Z (sc), vehicle: methylcellulose (MC)); 100 % of control in test [1] (dose: 300.0 mg/kg/injection, schedule: Q01DX Z (sc), vehicle: methylcellulose (MC)); 100 % of control in test [1] (dose: 500.0 mg/kg/injection, schedule: Q01DX Z (sc), vehicle: methylcellulose (MC)).
